This is an account of results in article PMC7040082 (Journal of Pharmacokinetics and Pharmacodynamics, 2019).

Where “and” joins values, the source holds several entries; their conditions need not be identical. Identical values can stand only once. Like-named read-outs stand apart in the source and are kept apart here.

For data set [1] the following is noted: dog, in vivo; cited from earlier work.
For data set [2] the following is noted: in vivo; cited from earlier work.
The conditions of data set [3]: for β (PD scale parameter, first arrival time of drug): constrained to 25-30 s; for AUC for CGPC(t) as percent of dose eliminated, 72h-∞: late-time 72 h to ∞ (drug mass remaining at 72 h); for AUC for CGPC(t) as percent of dose eliminated, 1/3-72h: sample-times 20 min to 72 h.
For data set [4] the following is noted: all samples 20 min to 72 h; ref [1]; cited from earlier work.
For data set [5] the following is noted: cited from earlier work; for urinary metformin recovery: human, at 60 to 72 h.
The next data set can be described thus: in vivo. Conditions: both, mixed-breed, dog, serum, iv, mean of seven dogs.
A short description of data set [6]: Noncompartmental (NC) analysis of IV bolus serum concentrations in dogs.
Where [7] appears, read: GPC fit, single IV bolus, individual dogs (Dog 1-7).
Setting [8] is: GPC fit, single IV bolus, mean of seven dogs.

In the case of `Nc1ccc(C(=O)NCC(=O)O)cc1` [PAH, p-aminohippurate], in data set [1], the CLPAH renal clearance is listed as 13.51 mlmin^-1kg^-1, the “EPAH arteriovenous extraction ratio” value is 0.7564 and the “nominal canine EPAH” value is 75.6%. Also, the EPAH in humans result in data set [2] is “circa 90%”.

As to `CN(C)C(=N)N=C(N)N` [metformin, 1,1-dimethylbiguanide], the “AUC for CGPC(t) as percent of dose eliminated, 0-72h” value in data set [3] (0 to 72 h (model renal excreted), mean of seven dogs) is 78.9%. Besides, in data set [3] (0 to 72 h, individual dogs 1-7), the “AUC for CGPC(t) as percent of dose eliminated, 0-72h” value is 91.3% and 71.6% and 84.4% and 79.7% and 67.0% and 82.6% and 75.9%. The “β (PD scale parameter, first arrival time of drug)” value in data set [3] (GPC fit, individual dogs (Dog 1-7)) was 30 s and 25 s. Besides, the “β (PD scale parameter, first arrival time of drug)” value in data set [3] (GPC fit, mean of seven dogs) turned out to be 26 s. In data set [3] (setting [7]), the CL was 11.4 ml/minkg and 14.7 ml/minkg and 9.8 ml/minkg and 11.5 ml/minkg and 26.7 ml/minkg and 19.4 ml/minkg and 12.4 ml/minkg; the “Peak (time at the maximum of the GPC model)” value was 1.34 min and 4.85 min and 0.66 min and 6.17 min and 2.21 min and 1.70 min; the “a (GD shape parameter)” value was 0.5194 and 0.7629 and 0.3493 and 0.8112 and 0.6689 and 0.6092 and 0.6435; the “b (GD rate parameter)” value is 0.6137 per h and 1.0518 per h and 0.7318 per h and 0.9993 per h and 0.9107 per h and 0.8062 per h and 1.1035 per h. The “α (PD shape parameter)” value in data set [3] (setting [7]) is 0.1929 and 0.1571 and 0.2644 and 0.1365 and 0.2010 and 0.1726 and 0.1199. Also, in data set [3] (setting [8]), the “Peak (time at the maximum of the GPC model)” value turned out to be 2.73 min, the “a (GD shape parameter)” value is 0.6235, the “b (GD rate parameter)” value is listed as 0.8882 per h and the “α (PD shape parameter)” value was 0.1778. In data set [3] (GPC model mean CL, RPF≈17.86 mlmin^-1kg^-1 from PAH meta-analysis), the “CL as percent of estimated total renal plasma flow (RPF)” value is given as 84.8%. In addition, the “CL GPC” value in data set [3] (GPC model, individual dogs 1-7) is 14.7 mlmin^-1kg^-1 and 9.8 mlmin^-1kg^-1 and 11.5 mlmin^-1kg^-1 and 26.7 mlmin^-1kg^-1 and 19.4 mlmin^-1kg^-1 and 12.4 mlmin^-1kg^-1 and 11.4 mlmin^-1kg^-1. For the same compound, the “early concentration peak, total elapsed time” value in data set [3] (GPC models, range of seven dogs) is 0.66 to 6.17 min. For the same compound, in data set [3] (GPC, GM EPAH of 35 controls), the “CL as percent of RPF using geometric means” value was determined as 84.7%. In data set [3] (at 72 h, […] remaining), the “decrease of drug mass in the body from the initial dose” value was determined as 5 fold. Besides, in data set [3] (individual dogs 1-7), the “AUC for CGPC(t) as percent of dose eliminated, 72h-∞” value was 8.7% and 28.4% and 15.6% and 20.3% and 33.0% and 17.4% and 24.1%; the “AUC for CGPC(t) as percent of dose eliminated, 1/3-72h” value was 53.1% and 58.7% and 63.7% and 60.5% and 50.8% and 62.0%. In data set [3] (mean of seven dogs), the “AUC for CGPC(t) as percent of dose eliminated, 72h-∞” value was determined as 21.1% and the “AUC for CGPC(t) as percent of dose eliminated, 1/3-72h” value is 58.5%. Besides, in data set [3] (over 72 h), the “decrease of serum concentration from estimated peak concentration” value is listed as 1000 fold. Besides, the “range of serum sample concentrations” value in data set [4] is reported as 9.78 to 19,100 ng/ml. Also, in data set [5] (48 h, may have been inflated, ref Pentikäinen et al. [21]), the “urine recovery from IV metformin” value is recorded as 99.9%. Also, the urinary metformin recovery in data set [5] (ref Table 1 of [19]) is 86%. Also, the urinary metformin recovery in data set [5] (ref Table II of [20]) is listed as 78.9%. Moreover, the AUC in “in vivo” (AUC, GPC fit, single IV bolus) amounted to 23600 ng·h/mL. In “in vivo” (CL GPC, GPC model), this compound displayed a clearance of 15.1 mL/min/kg. In “in vivo” (CL, GPC fit, single IV bolus), this compound displayed a clearance of 15.1 mL/min/kg. The compound further registered an AUC (E2 fit, single IV bolus, mean of seven dogs) of 15.8 mgh/L. Moreover, where the note is “E2 fit, mean of seven dogs”, the “p1 (fraction of AUC from first exponential term)” value is listed as 79.3%, the “p2 (fraction of AUC from second exponential term)” value was 20.7%, the λ1 came out at 0.721 h⁻¹ and the λ2 was 0.0490 h⁻¹. In addition, the “CL as percent of expected RPF” value (E2 mean CL, RPF≈17.86 mlmin^-1kg^-1) is given as 123.7%. Besides, the “CL E2” value (biexponential model, mean of seven dogs) stood at 22.1 mlmin^-1kg^-1. The “E2 CL-value greater than GPC CL-value” (dog 6) amounted to 41%. In data set [6] (NC mean CL, RPF≈17.86 mlmin^-1kg^-1), the “CL as percent of expected RPF” value was found to be 104.7%. The “NC CL-value greater than GPC CL-value” in data set [6] (dog 6) was 25%.

What is called clearance is a measure of how efficiently the substance is removed, as volume per time. Lower therefore signals a low capacity for elimination.
